The test system of the experiment is Recombinant B. malayi TrxR (rBmTrxR). Nature of the experiment: Recombinant B. malayi TrxR (rBmTrxR) DTNB inhibition assay. In kind it is biochemical, Brugia malayi. The protocol: Recombinant 6-His-tagged B. malayi TrxR (rBmTrxR) was produced in E. coli BL21(DE3) in the presence of pSUABC [29] in LB medium supplemented with 20 μg/mL riboflavin under conditions for optimal selenoprotein expression. An overnight starter culture in LB with 50 μg/mL ampicillin and 34 μg/mL chloramphenicol was diluted (1:100) into in LB medium with the same antibiotics. When the culture reached an OD600 = 0.8, the medium was supplemented with 5 μM sodium selenite and 100 μg/mL L-cysteine. When the culture OD600 = 2, riboflavin (20 μg/mL) was added and protein expression was induced by the addition of isopropyl β-D-1-thiogalactopyranoside (50 μM). At this point the cultures were shifted to 24°C and incubated for 24 hr. Cells were collected by centrifugation, lysed by alternative freeze-thaw cycles, and resuspended in lysis buffer (50 mM potassium phosphate, pH 7.8, 500 mM NaCl, 30 mM imidazole, 1 mg/mL lysozyme, 1 mM phenylmethanesulfonylfluoride) supplemented with 100 μM flavin adenine dinucleotide. The sample was sonicated and cellular debris pelleted at 25,000 x g at 4°C for 25 min. The supernatant was collected and filtered through a 0.45 μm filter before purification by immobilized metal ion affinity chromatography using a His-Trap FF column (GE Healthcare). The column was washed with 10 column volumes binding buffer (50 mM potassium phosphate, pH 7.8, 500 mM NaCl, 30 mM imidazole) and then with 5 column volumes of buffer A (binding buffer with 100 mM imidazole). TrxR protein was eluted in 3 × 1 mL buffer B (binding buffer with 500 mM imidazole).Protein was concentrated (Amicon Ultra-4 10K) and purity was verified by SDS-PAGE and quantified by absorbance at 280 nm (ε = 69.76 mM^-1 cm^-1).
rBmTrxR activity was assayed in 0.1 M potassium phosphate (pH 7.2) with 10 mM EDTA and 25 nM rBmTrxR. rBmTxrR was pre-incubated for 20 min with NADPH (100 μM) and auranofin (ICN Pharmaceuticals, now Valeant Pharmaceuticals, Bridgewater, NJ) or aurothioglucose (USP Reference Standards, Rockville, MD) in DMSO in 100 μL, followed by addition of an equal volume of buffer with NADPH (200 μM) and DTNB (6 mM) with reaction progress monitored at λ = 412 nm for TNB production. The concentration of DMSO in all reactions was 3.5%.

Regarding `CC[PH](CC)(CC)[Au][S][C@@H]1O[C@H](COC(C)=O)[C@@H](OC(C)=O)[C@H](OC(C)=O)[C@H]1OC(C)=O` [auranofin, 2,3,4,6-tetra-O-acetyl-1-thio-beta-D-glucopyranosato-S (triethylphosphine) gold], the “mode of inhibition of rBmTrxR” value is on record as “irreversibly inhibit rBmTrxR at a one-to-one molar ratio”. For the same compound, the IC50 (25 nM rBmTrxR, 20 min pre-incubation with NADPH, DTNB substrate) amounted to 3 nM.

As a reminder, the IC50 is the concentration at which inhibition is half-maximal.

For the origin of these results see paper PMC4336141, “Repurposing Auranofin as a Lead Candidate for Treatment of Lymphatic Filariasis and Onchocerciasis” (PLoS Neglected Tropical Diseases, 2015).
